Test results taken from patent publication US20090163521A1, “Novel Pyrazolopyrimidinone Derivatives” (ORCHID RESEARCH LABORATORIES LIMITED, priority 2005, published 2009).

Columns and labels:
TNF-α [1] = test: In vitro measurement of TNF-α in LPS-stimulated human PBMC; assay type: cell-based; conditions: LPS 1 μg/ml, 18 h
Experimental: This assay determines the effect of test compounds on the production of TNF α in human Peripheral Blood Mononuclear Cells (PBMC). Compounds were tested for their ability to inhibit the activity of TNF α in human PBMC. PBMC were isolated from blood (from healthy volunteers) using BD Vacutainer CPT™ (Cell preparation tube, BD Bio Science) and suspended in RPMI medium (Physiol. Res. 52: 593-598, 2003). The test compounds were pre-incubated with PBMC (0.5 million/incubation well) for 15 minutes at 37° C. and then stimulated with Lipopolysaccharide (Escherichia coli: B4; 1 μg/ml) for 18 h at 37° C. in 5% CO2. The levels of TNFα in cell culture medium were estimated using enzyme linked Immunosorbent assay performed in a 96 well format as per the procedure of the manufacturer (Cayman Chemical, Ann Arbor, USA).

IL-6 = test: In vitro measurement of IL-6 in LPS-stimulated human PBMC; assay type: cell-based; conditions: LPS 1 μg/ml, 18 h
Experimental: This assay determines the effect of test compounds on the production of IL-6 in human PBMC (Physiol. Res. 52: 593-598, 2003). Compounds were tested for their ability to inhibit the activity of IL-6 in human PBMC. PBMC were isolated from blood using BD Vacutainer CPT™ Cell preparation tube (BD Bio Science) and suspended in RPMI medium. The test compounds were pre-incubated with PBMC (0.5 million/incubation well) for 15 minutes at 37° C. and then stimulated with Lipopolysaccharide (Escherichia coli: B4; 1 μg/ml) for 18 h at 37° C. in 5% CO2. The levels of IL-6 in cell culture medium were estimated using enzyme linked Immunosorbent assay performed in a 96 well format as per the procedure of the manufacturer (Cayman Chemical, Ann Arbor, USA).

COX-2 = molecular target: T1, COX-2 (Homo sapiens, UniProt P35354); test: Human whole blood assay (LPS-induced PGE2, COX-2 inhibition); assay type: cell-based; conditions: LPS stimulated
T1 construct: Fresh blood was collected in tubes containing sodium heparin by vein puncture from healthy male volunteers; endogenous in cells; host or cells: human whole blood from healthy male volunteers, aspirin-pretreated and LPS-stimulated
T1 sequence (P35354 18-604): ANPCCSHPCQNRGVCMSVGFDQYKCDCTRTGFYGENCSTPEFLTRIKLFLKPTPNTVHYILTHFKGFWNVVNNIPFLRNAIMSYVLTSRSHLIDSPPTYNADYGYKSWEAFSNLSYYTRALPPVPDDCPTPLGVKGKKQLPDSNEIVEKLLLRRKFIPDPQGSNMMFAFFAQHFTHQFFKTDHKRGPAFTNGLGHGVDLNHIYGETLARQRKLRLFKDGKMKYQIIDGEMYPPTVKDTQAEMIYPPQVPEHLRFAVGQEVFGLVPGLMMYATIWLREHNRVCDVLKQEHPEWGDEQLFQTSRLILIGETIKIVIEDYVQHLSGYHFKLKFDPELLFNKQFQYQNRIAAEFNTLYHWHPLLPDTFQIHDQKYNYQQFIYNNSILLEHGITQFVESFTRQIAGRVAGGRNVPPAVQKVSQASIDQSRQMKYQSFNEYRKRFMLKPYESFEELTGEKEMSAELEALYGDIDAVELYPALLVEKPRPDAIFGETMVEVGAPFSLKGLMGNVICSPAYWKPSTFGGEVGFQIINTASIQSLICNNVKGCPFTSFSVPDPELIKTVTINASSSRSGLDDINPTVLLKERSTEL
Experimental: Human whole blood provides a protein and cell rich milieu appropriate for the study of biochemical efficacy of anti-inflammatory compounds such as selective COX-2 inhibitors. […] This is correlating with the observation that COX-2 inhibitors have no effect on prostaglandin E2 (PGE2) production in normal blood. These inhibitors were active only after incubation of human blood with lipopolysaccharide (LPS), which induces COX-2 production in the blood.
Fresh blood was collected in tubes containing sodium heparin by vein puncture from healthy male volunteers. The subjects should have no apparent inflammatory conditions and not taken NSAIDs for at least 7 days prior to blood collection. Blood was preincubated with aspirin in vitro (12 μg/ml, at time zero) to inactivate COX-1 for 6 hours. Then test compounds (at various concentrations) or vehicle were added to blood. After that blood was stimulated with LPS B:4 (10 μg/ml) and incubated for another 18 h at 37° C. water bath. After which the blood was centrifuged, plasma was separated and stored at −80° C. (J. Pharmacol. Exp. Ther, 271, 1705, 1994; Proc. Natl. Acad. Sci. USA, 96, 7563, 1999). The plasma was assayed for PGE2 using Cayman ELISA kit as per the procedure outlined by the manufacturer (Cayman Chemicals, Ann Arbor, USA).

[2] = molecular target: T2, purified recombinant COX-2 (Homo sapiens, UniProt P35354); test: COX-2 enzyme based assay; assay type: biochemical
T2 sequence (P35354 18-604): T1 sequence (P35354 18-604)
Experimental: (§1) COX-1 and COX-2 enzyme based assays were carried out to check the inhibitory potential of test compounds on the production of prostaglandin by purified recombinant COX-1/COX-2 enzyme (Proc. Nat. Acad. Sci. USA, 88, 2692-2696, 1991; J. Clin. Immunoassay 15, 116-120, 1992) In this assay, the potential of test compound to inhibit the production of prostaglandin either by COX-1 or COX-2 from arachidonic acid (substrate) was measured. This was an enzyme based in-vitro assay to evaluate selective COX inhibition with good reproducibility.
(§2) Arachidonic acid was converted to PGH2 (Intermediate product) by COX1/COX-2 in presence or absence of the test compound. The reaction was carried out at 37° C. and after 2 minutes it was stopped by adding 1M HCl. Intermediate product PGH2 was converted to a stable prostanoid product PGF2α by SnCl2 reduction. The amount of PGF2α produced in the reaction was inversely proportional to the COX inhibitory potential of the test compound. The prostanoid product was quantified via enzyme immunoassay (EIA) using a broadly specific antibody that binds to all the major forms of prostaglandin, using Cayman ELISA kit as per the procedure outlined by the manufacturer (Cayman Chemicals, Ann Arbor, USA).

[3] = molecular target: T3, purified recombinant COX-1 (Ovis aries, UniProt P05979); test: COX-1 enzyme based assay; assay type: biochemical
T3 sequence (P05979 25-600): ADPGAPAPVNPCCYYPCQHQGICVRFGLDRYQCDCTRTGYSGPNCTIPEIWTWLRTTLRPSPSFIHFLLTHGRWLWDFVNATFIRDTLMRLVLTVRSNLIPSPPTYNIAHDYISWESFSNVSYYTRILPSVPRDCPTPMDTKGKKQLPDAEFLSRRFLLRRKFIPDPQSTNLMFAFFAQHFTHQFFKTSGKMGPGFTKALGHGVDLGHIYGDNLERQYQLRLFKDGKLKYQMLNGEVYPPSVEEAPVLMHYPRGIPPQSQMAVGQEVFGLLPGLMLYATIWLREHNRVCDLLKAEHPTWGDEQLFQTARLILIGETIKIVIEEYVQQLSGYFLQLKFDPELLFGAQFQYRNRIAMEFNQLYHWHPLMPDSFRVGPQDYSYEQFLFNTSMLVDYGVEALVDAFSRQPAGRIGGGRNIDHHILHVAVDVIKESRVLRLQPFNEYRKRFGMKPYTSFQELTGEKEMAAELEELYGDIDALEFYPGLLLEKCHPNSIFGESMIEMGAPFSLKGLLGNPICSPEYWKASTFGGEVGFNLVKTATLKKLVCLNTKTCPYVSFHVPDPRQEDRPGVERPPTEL
Experimental: as §1, §2

TNF-α [4] = test: LPS induced sepsis for measurement of TNF-α inhibition in mice; assay type: in vivo; conditions: oral, serum 90 min after LPS
Experimental: The LPS induced sepsis model in mice was performed as described by Les sekut et al (J Lab Clin Med 1994; 124:813-20). Female Swiss albino mice were selected and the body weights were equivalent within each group. The mice were fasted for 20 hours with free access to water. The mice were dosed orally with the test compound suspended in vehicle containing 0.5% Tween 80 in 0.25% Carboxy-methylcellulose sodium salt. The control mice were administered the vehicle alone. After 30 min of oral dosing, mice were injected with 500 μg of Lipopolysaccharide (Escherichia coli, LPS: B4 from Sigma) in phosphate buffer saline solution into the intraperitoneal cavity of the mice. After 90 min of LPS administration mice were bled via retro-orbital sinus puncture. Blood samples were stored overnight at 4° C. Serum samples were collected by centrifuging the samples at 400 rpm for 15 min at 4° C. Immediately the serum samples were analysed for TNFα levels using commercially available mouse TNF-α ELISA kit (Amersham Biosciences) and assay was performed by the manufacturer instruction.

SMILES	inhibition at 10 µM (TNF-α [1]) [%]	inhibition at 1 µM (IL-6) [%]	further results
CSc1ccc(-c2nc3[nH]nc(N)c3c(=O)n2-c2ccc(Br)cc2)cc1 [Example 19, 3-Amino-5-(4-bromophenyl)-6-[(4-methylthio)phenyl]-1,5-dihydro-4H-pyrazolo[3,4-d]pyrimidin-4-one]	64.8	15.9	–
CSc1ccc(-c2nc3[nH]nc(NC(C)=O)c3c(=O)n2-c2ccc(C)c(C)c2)cc1 [Example 36, N-[5-(3,4-Dimethylphenyl)-4-oxo-6-[(4-methylthio)phenyl]-4,5-dihydro-1H-pyrazolo[3,4-d]pyrimidin-3-yl]acetamide]	29.9	12.7	–
CSc1ccc(-c2nc3[nH]nc(N)c3c(=O)n2-c2ccc(C)cc2)cc1 [Example 1, 3-amino-5-(4-methylphenyl)-6-[4-(methylthio)phenyl]-1,5-dihydro-4H-pyrazolo[3,4-d]pyrimidin-4-one]	–	–	melting point: > 285 °C; inhibition at 0.25 µM (COX-2; 0.25 μM): 20.3%; inhibition at 10 µM (COX-2; 10 μM): 41.6%
CSc1ccc(-c2nc3c(c(NC(=O)C(F)(F)F)nn3C)c(=O)n2-c2ccc(C)cc2C)cc1 [Example 40, 2,2,2-trifluoro-N-{5-(2,4-dimethylphenyl)-1-methyl-6-[4-(methylthio)phenyl]-4-oxo-4,5-dihydro-1H-pyrazolo[3,4-d]pyrimidin-3-yl}acetamide]	78	–	inhibition at 10 µM ([2]; Conc. 10 μM): 15.5%; inhibition at 10 µM ([3]; Conc. 10 μM): 3.11%
CCOc1ccc(-n2c(-c3ccc(SC)cc3)nc3c(c(N)nn3C)c2=O)cc1 [Example 21, 3-Amino-5-(4-ethoxyphenyl)-1-methyl-6-[4-(methylthio)phenyl]-1,5-dihydro-4H-pyrazolo[3,4-d]pyrimidin-4-one]	75.1	–	TNF-α Inhibition (%) (TNF-α [4]; at 50 mg/kg): 75.15 (at 50 mg/kg) %
CSc1ccc(-c2nc3c(c(N)nn3C)c(=O)n2-c2ccc(C(C)C)cc2)cc1 [Example 22, 3-Amino-5-(4-isopropylphenyl)-1-methyl-6-[4-(methylthio)phenyl]-1,5-dihydro-4H-pyrazolo[3,4-d]pyrimidin-4-one]	54	12	–
CSc1ccc(-c2nc3c(c(N)nn3C)c(=O)n2-c2ccc(C)cc2C)cc1 [Example 23, 3-Amino-5-(2,4-dimethylphenyl)-1-methyl-6-[4-(methylthio)phenyl]-1,5-dihydro-4H-pyrazolo[3,4-d]pyrimidin-4-one]	86.3	–	COX-2 Inhibition (%) ([2]; Conc. 1 μM): Not Active; inhibition at 1 µM ([3]; Conc. 1 μM): 51.6%; TNF-α Inhibition (%) (TNF-α [4]; at 5 mg/kg): 92.02 (at 5 mg/kg) %
